What was measured:
[1] = target: T1, Muscarinic acetylcholine receptor M4 (Homo sapiens) (UniProt P08173); assay: Partial agonist activity at human muscarinic M4 acetylcholine receptor expressed in CHO cells co-expressing Galpha16 assessed as calcium mobilization at 0.3 uM by FLIPR assay; format: functional, cell-based
T1 sequence (whole entry): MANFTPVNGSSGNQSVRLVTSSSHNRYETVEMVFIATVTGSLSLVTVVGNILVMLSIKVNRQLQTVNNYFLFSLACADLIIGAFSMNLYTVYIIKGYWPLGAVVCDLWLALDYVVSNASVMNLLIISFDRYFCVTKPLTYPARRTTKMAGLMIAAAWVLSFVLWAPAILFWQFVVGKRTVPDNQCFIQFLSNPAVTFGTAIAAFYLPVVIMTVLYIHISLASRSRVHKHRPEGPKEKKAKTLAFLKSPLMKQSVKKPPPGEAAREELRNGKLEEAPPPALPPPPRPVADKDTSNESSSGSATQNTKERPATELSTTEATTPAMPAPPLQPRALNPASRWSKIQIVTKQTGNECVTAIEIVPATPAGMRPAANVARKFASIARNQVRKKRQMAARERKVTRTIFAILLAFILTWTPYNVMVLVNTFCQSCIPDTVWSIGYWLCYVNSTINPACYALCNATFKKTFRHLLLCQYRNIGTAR

Cytochrome P450 2C19 = Cytochrome P450 2C19 (Homo sapiens, UniProt P33261); assay: Inhibition of CYP2C19 (unknown origin); format: ADME
P-glycoprotein = assay: Binding affinity to p-glycoprotein (unknown origin) assessed as efflux ratio by cell based assay; format: ADME; conditions: human, not told
[2] = target: Alpha-1A adrenergic receptor (Homo sapiens) (UniProt P35348); assay: Binding affinity to adrenergic alpha1A receptor (unknown origin) at 3 uM by radioligand-binding assay
[3] = target: Histamine H1 receptor (Homo sapiens) (UniProt P35367); assay: Binding affinity to histamine H1 receptor (unknown origin) at 3 uM by radioligand-binding assay
[4] = target: T2, Muscarinic acetylcholine receptor M2 (Homo sapiens) (UniProt P08172); assay: Agonist activity at human muscarinic M2 acetylcholine receptor expressed in CHO cells co-expressing Galpha16 assessed as calcium mobilization at 30 uM by FLIPR assay; format: functional, cell-based
T2 sequence (whole entry): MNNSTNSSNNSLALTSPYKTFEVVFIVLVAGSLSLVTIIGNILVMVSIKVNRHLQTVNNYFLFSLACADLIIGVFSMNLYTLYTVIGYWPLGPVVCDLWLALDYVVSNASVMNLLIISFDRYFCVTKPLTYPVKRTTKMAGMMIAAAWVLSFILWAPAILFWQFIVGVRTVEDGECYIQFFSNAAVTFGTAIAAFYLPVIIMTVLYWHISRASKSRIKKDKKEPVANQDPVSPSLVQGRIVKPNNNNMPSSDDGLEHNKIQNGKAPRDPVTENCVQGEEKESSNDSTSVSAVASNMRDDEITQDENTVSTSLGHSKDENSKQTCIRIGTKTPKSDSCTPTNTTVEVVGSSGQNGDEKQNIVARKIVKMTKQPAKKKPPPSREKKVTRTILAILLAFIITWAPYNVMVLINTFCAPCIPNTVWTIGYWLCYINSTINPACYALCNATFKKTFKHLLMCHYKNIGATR

[5] = target: Beta-2 adrenergic receptor (Homo sapiens) (UniProt P07550); assay: Agonist activity at adrenergic beta2 receptor (unknown origin) expressed in CHO cells assessed as calcium mobilization at 3 uM; format: functional, cell-based
[6] = target: Type-1 angiotensin II receptor (Homo sapiens) (UniProt P30556); assay: Agonist activity at angiotensin 2 type 1 receptor (unknown origin) expressed in CHO cells assessed as calcium mobilization at 3 uM; format: functional, cell-based
[7] = target: Cannabinoid receptor 1 (Homo sapiens) (UniProt P21554); assay: Agonist activity at CB1 receptor (unknown origin) expressed in CHO cells assessed as calcium mobilization at 3 uM; format: functional, cell-based
[8] = target: D(1A) dopamine receptor (Homo sapiens) (UniProt P21728); assay: Agonist activity at dopamine D1 receptor (unknown origin) expressed in CHO cells assessed as calcium mobilization at 3 uM; format: functional, cell-based
CHO = assay: Agonist activity at GaBaB receptor (unknown origin) expressed in CHO cells assessed as calcium mobilization at 3 uM; format: cell-based; conditions: Homo sapiens
[9] = target: Cysteinyl leukotriene receptor 1 (Homo sapiens) (UniProt Q9Y271); assay: Agonist activity at CysLT1 receptor (unknown origin) expressed in CHO cells assessed as calcium mobilization at 3 uM; format: functional, cell-based
[10] = target: Nociceptin receptor (Homo sapiens) (UniProt P41146); assay: Agonist activity at OPRL1 receptor (unknown origin) expressed in CHO cells assessed as calcium mobilization at 3 uM; format: functional, cell-based
[11] = target: 5-hydroxytryptamine receptor 1A (Homo sapiens) (UniProt P08908); assay: Agonist activity at 5-HT1a receptor (unknown origin) expressed in CHO cells assessed as calcium mobilization at 3 uM; format: functional, cell-based
[12] = target: 5-hydroxytryptamine receptor 1F (Homo sapiens) (UniProt P30939); assay: Agonist activity at 5-HT1F receptor (unknown origin) expressed in CHO cells assessed as calcium mobilization at 3 uM; format: functional, cell-based
[13] = target: Alpha-2A adrenergic receptor (Homo sapiens) (UniProt P08913); assay: Antagonist activity at adrenergic a2a receptor (unknown origin) expressed in CHO cells assessed as calcium mobilization at 3 uM; format: functional, cell-based
[14] = target: 5-hydroxytryptamine receptor 4 (Homo sapiens) (UniProt Q13639); assay: Antagonist activity at 5-HT4B receptor (unknown origin) expressed in CHO cells assessed as calcium mobilization at 3 uM; format: functional, cell-based
[15] = target: 5-hydroxytryptamine receptor 5A (Homo sapiens) (UniProt P47898); assay: Antagonist activity at 5-HT5a receptor (unknown origin) expressed in CHO cells assessed as calcium mobilization at 3 uM; format: functional, cell-based
5-hydroxytryptamine receptor 5A (Homo sapiens), sequence (P47898 whole entry): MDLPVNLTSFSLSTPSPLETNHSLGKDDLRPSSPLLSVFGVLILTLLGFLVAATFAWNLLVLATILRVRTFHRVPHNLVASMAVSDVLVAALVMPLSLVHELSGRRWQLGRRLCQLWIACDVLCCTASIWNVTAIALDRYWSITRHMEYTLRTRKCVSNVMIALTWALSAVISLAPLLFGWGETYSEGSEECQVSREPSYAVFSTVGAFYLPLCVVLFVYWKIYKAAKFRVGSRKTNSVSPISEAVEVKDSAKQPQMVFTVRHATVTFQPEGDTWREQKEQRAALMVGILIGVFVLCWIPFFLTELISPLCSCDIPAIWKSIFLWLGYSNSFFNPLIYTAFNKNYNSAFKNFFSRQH

5-hydroxytryptamine receptor 1F (Homo sapiens), sequence (P30939 whole entry): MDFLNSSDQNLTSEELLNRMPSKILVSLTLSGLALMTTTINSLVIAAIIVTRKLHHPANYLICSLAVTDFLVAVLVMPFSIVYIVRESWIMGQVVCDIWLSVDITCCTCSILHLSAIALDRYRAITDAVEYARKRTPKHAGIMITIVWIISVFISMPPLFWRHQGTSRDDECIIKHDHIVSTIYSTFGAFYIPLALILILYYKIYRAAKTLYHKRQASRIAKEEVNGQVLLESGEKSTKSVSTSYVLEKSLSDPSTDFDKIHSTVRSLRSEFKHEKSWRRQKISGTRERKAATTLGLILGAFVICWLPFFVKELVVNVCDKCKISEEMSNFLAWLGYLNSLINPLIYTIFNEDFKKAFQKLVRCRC
Cytochrome P450 2C19, sequence (P33261 whole entry): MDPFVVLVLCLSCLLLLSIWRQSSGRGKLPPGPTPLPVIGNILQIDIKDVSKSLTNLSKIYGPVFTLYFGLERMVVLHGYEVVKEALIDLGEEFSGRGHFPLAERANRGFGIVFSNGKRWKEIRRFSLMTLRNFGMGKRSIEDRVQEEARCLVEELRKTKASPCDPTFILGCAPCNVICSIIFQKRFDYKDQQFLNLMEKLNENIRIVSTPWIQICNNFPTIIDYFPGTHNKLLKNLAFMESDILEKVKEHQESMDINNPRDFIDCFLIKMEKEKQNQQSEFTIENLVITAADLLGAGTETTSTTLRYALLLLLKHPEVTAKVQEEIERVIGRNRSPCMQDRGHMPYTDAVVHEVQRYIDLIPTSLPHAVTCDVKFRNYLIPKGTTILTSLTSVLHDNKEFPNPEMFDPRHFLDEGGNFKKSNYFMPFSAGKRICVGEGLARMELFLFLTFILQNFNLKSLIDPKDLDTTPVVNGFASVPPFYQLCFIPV
5-hydroxytryptamine receptor 4 (Homo sapiens), sequence (Q13639 whole entry): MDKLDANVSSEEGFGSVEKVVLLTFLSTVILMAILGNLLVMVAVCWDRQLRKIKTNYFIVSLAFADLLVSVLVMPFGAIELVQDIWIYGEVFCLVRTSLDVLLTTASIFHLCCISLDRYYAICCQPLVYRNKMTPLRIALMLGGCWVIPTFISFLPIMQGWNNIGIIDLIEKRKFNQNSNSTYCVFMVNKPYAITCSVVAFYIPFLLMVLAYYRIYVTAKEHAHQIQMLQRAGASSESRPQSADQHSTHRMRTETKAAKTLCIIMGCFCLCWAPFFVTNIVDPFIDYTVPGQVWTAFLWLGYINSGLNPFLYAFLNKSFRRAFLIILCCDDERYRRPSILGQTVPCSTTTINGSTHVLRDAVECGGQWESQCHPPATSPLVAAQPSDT
Alpha-1A adrenergic receptor (Homo sapiens), sequence (P35348 whole entry): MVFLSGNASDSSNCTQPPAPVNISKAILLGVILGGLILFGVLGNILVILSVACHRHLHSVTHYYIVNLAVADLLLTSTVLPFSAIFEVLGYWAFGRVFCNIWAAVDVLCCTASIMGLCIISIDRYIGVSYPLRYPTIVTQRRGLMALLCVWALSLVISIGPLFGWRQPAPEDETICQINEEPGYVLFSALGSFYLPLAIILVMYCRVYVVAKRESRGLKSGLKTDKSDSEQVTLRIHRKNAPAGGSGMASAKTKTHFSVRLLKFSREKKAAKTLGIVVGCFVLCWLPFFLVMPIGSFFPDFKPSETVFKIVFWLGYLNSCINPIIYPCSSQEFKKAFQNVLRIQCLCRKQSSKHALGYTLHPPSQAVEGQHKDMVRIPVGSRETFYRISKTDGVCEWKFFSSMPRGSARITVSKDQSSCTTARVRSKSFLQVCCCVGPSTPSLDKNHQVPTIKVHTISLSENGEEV
Nociceptin receptor (Homo sapiens), sequence (P41146 whole entry): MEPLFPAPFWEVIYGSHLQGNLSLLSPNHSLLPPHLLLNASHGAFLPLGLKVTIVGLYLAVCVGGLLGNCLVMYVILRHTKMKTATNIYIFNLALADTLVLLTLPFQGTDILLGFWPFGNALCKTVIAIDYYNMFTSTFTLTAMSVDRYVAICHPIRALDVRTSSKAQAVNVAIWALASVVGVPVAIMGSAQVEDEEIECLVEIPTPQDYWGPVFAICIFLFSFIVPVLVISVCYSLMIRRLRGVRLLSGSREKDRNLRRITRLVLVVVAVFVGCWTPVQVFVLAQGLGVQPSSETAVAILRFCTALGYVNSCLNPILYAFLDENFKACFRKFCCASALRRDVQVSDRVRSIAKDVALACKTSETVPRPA
Beta-2 adrenergic receptor (Homo sapiens), sequence (P07550 whole entry, looked up): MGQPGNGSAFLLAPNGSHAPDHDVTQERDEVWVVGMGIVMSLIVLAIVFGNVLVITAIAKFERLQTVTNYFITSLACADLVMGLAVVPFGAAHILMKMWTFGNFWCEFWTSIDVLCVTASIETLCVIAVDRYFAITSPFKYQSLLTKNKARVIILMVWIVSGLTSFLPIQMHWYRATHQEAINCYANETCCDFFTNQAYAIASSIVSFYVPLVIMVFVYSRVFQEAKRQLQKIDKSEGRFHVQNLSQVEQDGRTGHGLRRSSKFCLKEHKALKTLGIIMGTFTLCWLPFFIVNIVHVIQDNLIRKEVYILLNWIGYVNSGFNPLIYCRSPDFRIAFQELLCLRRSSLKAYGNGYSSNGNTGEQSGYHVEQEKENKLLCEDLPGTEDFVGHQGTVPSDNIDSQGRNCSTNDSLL
D(1A) dopamine receptor (Homo sapiens), sequence (P21728 whole entry): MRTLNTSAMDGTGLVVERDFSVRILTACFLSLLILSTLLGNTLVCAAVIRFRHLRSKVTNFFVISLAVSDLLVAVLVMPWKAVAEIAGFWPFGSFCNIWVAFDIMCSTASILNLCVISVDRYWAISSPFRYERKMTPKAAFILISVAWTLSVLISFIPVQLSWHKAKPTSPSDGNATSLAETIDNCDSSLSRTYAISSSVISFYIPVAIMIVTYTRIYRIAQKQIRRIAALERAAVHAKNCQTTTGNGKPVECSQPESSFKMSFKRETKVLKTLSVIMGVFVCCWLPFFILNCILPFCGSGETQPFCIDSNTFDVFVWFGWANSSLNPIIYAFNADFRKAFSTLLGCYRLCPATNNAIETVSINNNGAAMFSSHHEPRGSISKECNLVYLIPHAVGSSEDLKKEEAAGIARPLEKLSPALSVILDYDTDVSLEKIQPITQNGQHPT
Cysteinyl leukotriene receptor 1 (Homo sapiens), sequence (Q9Y271 whole entry): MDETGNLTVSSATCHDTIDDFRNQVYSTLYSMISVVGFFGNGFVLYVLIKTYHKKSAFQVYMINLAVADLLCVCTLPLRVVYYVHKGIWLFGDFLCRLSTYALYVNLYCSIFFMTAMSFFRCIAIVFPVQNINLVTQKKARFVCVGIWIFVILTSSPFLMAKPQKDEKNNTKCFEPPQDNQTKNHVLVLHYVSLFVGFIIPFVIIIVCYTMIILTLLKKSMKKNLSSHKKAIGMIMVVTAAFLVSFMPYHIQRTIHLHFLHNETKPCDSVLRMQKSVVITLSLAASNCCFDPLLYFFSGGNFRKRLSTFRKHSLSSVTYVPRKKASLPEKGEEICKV
5-hydroxytryptamine receptor 1A (Homo sapiens), sequence (P08908 whole entry): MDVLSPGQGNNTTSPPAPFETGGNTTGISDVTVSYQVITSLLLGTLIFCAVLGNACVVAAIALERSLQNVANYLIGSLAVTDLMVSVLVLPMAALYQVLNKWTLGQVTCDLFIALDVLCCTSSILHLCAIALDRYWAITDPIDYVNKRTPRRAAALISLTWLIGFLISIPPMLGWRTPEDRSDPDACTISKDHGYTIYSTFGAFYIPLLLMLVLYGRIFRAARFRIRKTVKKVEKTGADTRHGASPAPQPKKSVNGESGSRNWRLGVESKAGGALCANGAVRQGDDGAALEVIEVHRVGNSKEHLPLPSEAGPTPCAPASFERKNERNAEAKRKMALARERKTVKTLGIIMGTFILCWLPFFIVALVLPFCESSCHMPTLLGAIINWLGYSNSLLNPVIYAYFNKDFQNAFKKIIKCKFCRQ
Alpha-2A adrenergic receptor (Homo sapiens), sequence (P08913 whole entry): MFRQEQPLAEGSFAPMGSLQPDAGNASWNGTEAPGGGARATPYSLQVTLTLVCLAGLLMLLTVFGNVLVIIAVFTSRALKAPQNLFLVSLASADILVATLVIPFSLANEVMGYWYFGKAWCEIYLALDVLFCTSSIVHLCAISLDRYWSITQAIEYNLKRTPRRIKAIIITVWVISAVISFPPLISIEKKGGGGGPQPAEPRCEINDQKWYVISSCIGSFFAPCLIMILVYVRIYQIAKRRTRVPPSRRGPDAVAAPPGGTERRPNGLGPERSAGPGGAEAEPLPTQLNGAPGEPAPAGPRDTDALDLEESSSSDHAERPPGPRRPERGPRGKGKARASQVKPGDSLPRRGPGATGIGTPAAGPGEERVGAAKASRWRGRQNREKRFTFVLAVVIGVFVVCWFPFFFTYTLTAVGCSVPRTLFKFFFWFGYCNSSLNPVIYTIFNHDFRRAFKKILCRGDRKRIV
Type-1 angiotensin II receptor (Homo sapiens), sequence (P30556 whole entry): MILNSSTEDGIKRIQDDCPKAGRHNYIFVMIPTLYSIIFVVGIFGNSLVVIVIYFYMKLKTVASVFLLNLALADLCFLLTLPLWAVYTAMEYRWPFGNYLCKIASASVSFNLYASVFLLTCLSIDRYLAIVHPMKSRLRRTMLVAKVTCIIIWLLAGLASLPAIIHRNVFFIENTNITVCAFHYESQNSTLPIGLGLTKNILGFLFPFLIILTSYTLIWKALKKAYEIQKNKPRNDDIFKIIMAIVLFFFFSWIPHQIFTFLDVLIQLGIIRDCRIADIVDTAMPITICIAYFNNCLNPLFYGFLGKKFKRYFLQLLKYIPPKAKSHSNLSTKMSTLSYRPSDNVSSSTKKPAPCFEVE

CCOC(=O)N1[C@@H]2CC[C@H]1C[C@H](CN1CC[C@@H](N3Cc4ccccc4NC3=O)C1)C2
Activity [1]: 49%
IC50 (Cytochrome P450 2C19): > 2 µM
efflux ratio (P-glycoprotein): 1
inhibition [2]: 6%
inhibition [3]: 6%
Activity [4]: 3%
Activity [5]: -0.21%
Activity [6]: -0.18%
Activity [7]: 1.66%
Activity [8]: 0.49%
Activity (CHO): 0.7%
Activity [9]: 0.45%
Activity [10]: 0.23%
Activity [11]: 0.06%
Activity [12]: -0.53%
inhibition [13]: 9.18%
inhibition [14]: -1.57%
inhibition [15]: 0.91%
